Assay results published in US12570612B2, “Substituted nitrogen heterocyclic compound and anesthetic effect thereof” (priority 2019, dated 2026).
Like-named read-outs stand apart in the source and are kept apart here.

Tests used:
[1] = system: Sprague-Dawley rats; experiment: animal or person; details: for ED50: LORR in rats, tail vein, brackets = 95% confidence limit; for Approximate therapeutic index / Minimal lethal dose: rats
Experimental: Adult male Sprague-Dawley rats (250-300 g) were selected for the experiment. […] The anesthesia effects of the compounds were assessed in rats using a LORR assay and a period >30 s was considered as an indicator of general anesthesia.

[2] = system: H295R cell line; experiment: Adrenocortical function in vitro test: secretion of cortisol and corticosterone, Group B compounds; format: cell-based; details: H295R cells; for EC50: 0.1-10000 nM, HPLC-MS/MS
[3] = Homo sapiens, NCI-H295R, read-out: EC50 (Corticosterone)
[4] = Homo sapiens, NCI-H295R, read-out: EC50 (Cortisol)
[5] = read-out: EC50 (Corticosterone)

| Structure (SMILES) | ED50 ([1]; Rattus norvegicus) [mg/kg] | Approximate therapeutic index [1] | Minimal lethal dose [1] [mg/kg] | Corticosterone as an indicator to determine the presence of inhibition [2] | Cortisol as an indicator to determine the presence of inhibition [2] | EC50 [2, 3] [nM] | EC50 [2, 4] [nM] | ED50 [1] | EC50 [2, 5] [nM] | EC50 ([2]; read-out: EC50 (Cortisol)) [nM] |
| --- | --- | --- | --- | --- | --- | --- | --- | --- | --- | --- |
| COC(=O)C1(OC(=O)c2c(Br)nnn2[C@H](C)c2ccccc2)CC1 [Compound B121] | 2 to 10 | >3 | >20 | 0 | 0 | > 1000 | > 1000 |  |  |  |
| C=C=CC1(OC(=O)c2c(I)nnn2[C@H](C)c2ccccc2)CCCCC1 [Compound B137] | 1 to 2 | >9 | >12 | 0 | 0 | > 1000 | > 1000 |  |  |  |
| C[C@H](c1ccccc1)n1nnc(Br)c1C(=O)OC1CC1 [Compound B116] | 1 to 2 | >9 | >12 | 0 | 0 | > 3000 | > 3000 |  |  |  |
| C[C@H](c1ccccc1)n1nnc(Br)c1C(=O)OC(C)(C)C [Compound B110] |  | >7 | >16 | 0 | 0 |  |  | D (D indicates that the measured ED50 is in the range of 2.00-10.00 mg/kg (excluding 2.00 mg/kg, including 10.00 mg/kg)) | > 3000 | > 3000 |
| C[C@H](c1ccccc1)n1nnc(Br)c1C(=O)OC1CCC1 [Compound B104] |  | >10 | >11 | 0 | 0 |  |  | C (C indicates that the measured ED50 is in the range of 1.00-2.00 mg/kg (excluding 1.00 mg/kg, including 2.00 mg/kg)) | > 3000 | > 3000 |
| C=CCOC(=O)c1c(Br)nnn1[C@H](C)c1ccccc1 [Compound B108] |  | >20 | >14 | 0 | 0 |  |  | B (B indicates that the measured ED50 is in the range of 0.50-1.00 mg/kg (excluding 0.50 mg/kg, including 1.00 mg/kg)) | > 3000 | > 3000 |
| CCSC(=O)c1c(Br)nnn1[C@H](C)c1ccccc1 [Compound B120] | 0.5 to 1 | >21 | >15 | 0 | 0 | > 1000 | > 1000 |  |  |  |
| C=C=CC1(OC(=O)c2cnnn2[C@H](C)c2ccccc2)CCCCC1 [Compound B11] |  | >8 | >6 | 0 | 0 |  |  | B (B indicates that the measured ED50 is in the range of 0.50-1.00 mg/kg (excluding 0.50 mg/kg, including 1.00 mg/kg)) | > 1000 | > 1000 |
| C[C@H](c1ccccc1)n1nnc(I)c1C(=O)OC1CC1 [Compound B144] | 10 to 20 | >2 | >24 | 0 | 0 | > 1000 | > 1000 |  |  |  |
| COC(=O)C1=C(OC(=O)c2cnnn2[C@H](C)c2ccccc2)CCCC1 [Compound B30] | 0.5 to 1 | >10 | >10 | 0 | 0 | > 1000 | > 1000 |  |  |  |
| CC(C)OC(=O)c1cnnn1[C@H](C)c1ccccc1 [Compound B17] | 0.04 to 0.5 | >56 | >16 | 0 | 0 | > 1000 | > 1000 |  |  |  |
